SMILES strings stand for the structures.

One assay has as its system TNF-α production in LPS-stimulated human whole blood. Description: Inhibition of TNF-α production from human whole blood (hWBA). It is filed as cell-based. The settings on record: Homo sapiens, IC50 for TNF-α production, LPS-stimulated human whole blood; read-out: hWBA.
As for `COc1ccc2c(c1)C(=O)N(C[C@]1(C#Cc3ccc(C(=O)NS(C)(=O)=O)nc3)NC(=O)NC1=O)C2` [Compound 901], the IC50 came out at 1000 nM. For `COc1ccc2c(c1)C(=O)N(C[C@@]1(C#Cc3ccc(C(=O)NS(C)(=O)=O)nc3)NC(=O)NC1=O)C2` [Compound 902], the IC50 was found to be 1370 nM. With `COc1ccc2c(c1)C(=O)N(C[C@@]1(C#Cc3ccc(C4(C5CCC5)NC(=O)NC4=O)cc3)NC(=O)NC1=O)C2` (stereo partly drawn) [Compound 906], the IC50 stood at 382 nM.

Take `COc1ccc2c(c1)C(=O)N(C[C@@]1(C#Cc3ccc4oc(C5(C)NC(=O)NC5=O)cc4c3)NC(=O)NC1=O)C2` (stereo partly drawn) [Compound 909]: the IC50 was 292 nM. Consider `CCN1CCN(C(=NO)c2ccc(C#C[C@]3(CN4Cc5ccc(OC)cc5C4=O)NC(=O)NC3=O)cc2)CC1` [Compound 911], for which the IC50 was 20 nM. On the same count and under the same terms, to `COc1ccc2c(c1)C(=O)N(C[C@@]1(C#Cc3cccc(C(=NO)N4CCOCC4)c3)NC(=O)NC1=O)C2` [Compound 916] belongs 274 nM; to `CCN1CCN(C(=NO)c2cncc(C#C[C@]3(CN4Cc5ccc(OC)cc5C4=O)NC(=O)NC3=O)c2)CC1` [Compound 923], 435 nM. In the case of `COc1ccc2c(c1)C(=O)N(C[C@@]1(C#Cc3ccc(C(=NO)N4CCN(C5CCCCCC5)CC4)cc3)NC(=O)NC1=O)C2` [Compound 927], the IC50 was determined as 151 nM. Take `COc1ccc2c(c1)C(=O)N(C[C@@]1(C#Cc3ccc(C(=NO)N4CCN(c5ccccc5)CC4)cc3)NC(=O)NC1=O)C2` [Compound 928]: the IC50 worked out at 278 nM.

Regarding `COc1ccc2c(c1)C(=O)N(C[C@@]1(C#Cc3ccc4c(c3)C(C)Oc3cccnc3-4)NC(=O)NC1=O)C2` (stereo partly drawn) [Compound 929], the IC50 worked out at 3550 nM.

For `COc1ccc2c(c1)C(=O)N(C[C@@]1(C#Cc3ccc(C(=NO)N4CCN(C)CC4)cc3)NC(=O)NC1=O)C2` [Compound 943], the IC50 was determined as 65 nM. Consider `COc1ccc2c(c1)C(=O)N(C[C@@]1(C#Cc3ccc(C(=NO)N4CCCCC4)cc3)NC(=O)NC1=O)C2` [Compound 946], for which the IC50 was 154 nM.

Staying with this assay, now noted: Homo sapiens, IC50 for inhibition of TNF-α production, LPS-stimulated human whole blood; read-out: hWBA.
Take `CSc1ccc2c(c1)C(=O)N(C[C@@]1(C#Cc3cccnc3)NC(=O)NC1=O)C2` [Compound 312]: the IC50 came out at 651 nM.

For `CCN1CCN(C(=O)c2ccc(C#C[C@]3(CN4Cc5ccc(OC)cc5C4=O)NC(=O)NC3=O)cc2)CC1` [Compound 960], the IC50 turned out to be 446 nM. Still for that read-out and setting: with `COc1ccc2c(c1)C(=O)N(C[C@@]1(C#Cc3ccc(C(=O)N4CCC(N5CCCCC5)CC4)cc3)NC(=O)NC1=O)C2` [Compound 963] the figure was 401 nM.

Staying with this assay, now noted: IC50 for TNF-α production, LPS-stimulated human whole blood; read-out: hWBA.
As to `C#C[C@]1(CN2Cc3ccc(OC)c(F)c3C2=O)NC(=O)NC1=O` [Compound 23], the IC50 stood at 841 nM. The same measure, in the same setting: to `COc1ccc2c(c1)C(=O)N(C[C@]1(C#Cc3cnc(N)c(C(=O)O)c3)NC(=O)NC1=O)C2` [Compound 903] belongs 1000 nM. On to `COc1ccc2c(c1)C(=O)N(C[C@@]1(C#Cc3cnc(N)c(C(=O)NS(C)(=O)=O)c3)NC(=O)NC1=O)C2` [Compound 904], for which the IC50 came out at 10000 nM. For the molecule `COc1ccc2c(c1)C(=O)N(C[C@]1(C#Cc3ccc(C(=O)O)s3)NC(=O)NC1=O)C2` [Compound 905], the IC50 turned out to be 10000 nM.

Turning to `COc1ccc2c(c1)C(=O)N(C[C@@]1(C#Cc3ccc(C4(C)NC(=O)NC4=O)s3)NC(=O)NC1=O)C2` (stereo partly drawn) [Compound 907], the IC50 stood at 208 nM.

For `COc1ccc2c(c1)C(=O)N(C[C@@]1(C#Cc3csc(C4(C)NC(=O)NC4=O)c3)NC(=O)NC1=O)C2` (stereo partly drawn) [Compound 908], the IC50 came to 531 nM. On the same count and under the same terms, to `COc1ccc2c(c1)C(=O)N(C[C@@]1(C#Cc3ccc4oc(C5(C)NC(=O)NC5=O)c(C)c4c3)NC(=O)NC1=O)C2` (stereo partly drawn) [Compound 910] belongs 545 nM; to `COc1ccc2c(c1)C(=O)N(C[C@@]1(C#Cc3ccc(C(=NO)N4CCSCC4)cc3)NC(=O)NC1=O)C2` [Compound 912], 153 nM. For the molecule `COc1ccc2c(c1)C(=O)N(C[C@@]1(C#Cc3ccc(C(=NO)N4CCCN(C)CC4)cc3)NC(=O)NC1=O)C2` [Compound 913], the IC50 came out at 45 nM. Same read-out and setting: with `COc1ccc2c(c1)C(=O)N(C[C@@]1(C#Cc3ccc(C(=NO)N4CCC4)cc3)NC(=O)NC1=O)C2` [Compound 914] the figure was 186 nM; with `COc1ccc2c(c1)C(=O)N(C[C@@]1(C#Cc3cccc(C(=NO)N4CCN(C)CC4)c3)NC(=O)NC1=O)C2` [Compound 915], 221 nM.

For the molecule `COc1ccc2c(c1)C(=O)N(C[C@@]1(C#Cc3ccc(C(=NO)N4CCN(C5CC5)CC4)cc3)NC(=O)NC1=O)C2` [Compound 922], the IC50 stood at 92 nM. Take `COc1ccc2c(c1)C(=O)N(C[C@@]1(C#Cc3cncc(C(=NO)N4CCCN(C)CC4)c3)NC(=O)NC1=O)C2` [Compound 924]: the IC50 was found to be 1320 nM.

On to `CCCCN1CCN(C(=NO)c2ccc(C#C[C@]3(CN4Cc5ccc(OC)cc5C4=O)NC(=O)NC3=O)cc2)CC1` [Compound 925], for which the IC50 stood at 74 nM. Consider `COc1ccc2c(c1)C(=O)N(C[C@@]1(C#Cc3ccc(C(=NO)N4CCN(C5CCCCC5)CC4)cc3)NC(=O)NC1=O)C2` [Compound 926], for which the IC50 is 76 nM. Consider `CCN1CCN(C(CO)c2ccc(C#C[C@]3(CN4Cc5ccc(OC)cc5C4=O)NC(=O)NC3=O)cc2)CC1` (stereo partly drawn) [Compound 930], for which the IC50 turned out to be 504 nM. Same read-out and setting: to `COc1ccc2c(c1)C(=O)N(C[C@@]1(C#Cc3ccc(C(=NO)N4CCCN(C(C)C)CC4)cc3)NC(=O)NC1=O)C2` [Compound 931] belongs 47 nM; to `COc1ccc2c(c1)C(=O)N(C[C@@]1(C#Cc3ccc(-c4ncccc4O)cc3)NC(=O)NC1=O)C2` [Compound 934], 117 nM; to `COc1ccc2c(c1)C(=O)N(C[C@@]1(C#Cc3ccc(/C=N\Nc4ccccc4)cc3)NC(=O)NC1=O)C2` [Compound 935], 1220 nM. Regarding `CCN1CCN(c2ccc(O)c(-c3ccc(C#C[C@]4(CN5Cc6ccc(OC)cc6C5=O)NC(=O)NC4=O)cc3)n2)CC1` [Compound 936], the IC50 amounted to 72.4 nM. With `COc1ccc2c(c1)C(=O)N(C[C@@]1(C#Cc3ccc(C(=NO)N4CCCC4)cc3)NC(=O)NC1=O)C2` [Compound 942], the IC50 was 641 nM. Same read-out and setting: with `COc1ccc2c(c1)C(=O)N(C[C@@]1(C#Cc3ccc(C(=NO)N4CCC(=O)CC4)cc3)NC(=O)NC1=O)C2` [Compound 945] the figure was 86 nM; with `COc1ccc2c(c1)C(=O)N(C[C@@]1(C#Cc3ccc(C(=NO)N4CCN(C)CC4)s3)NC(=O)NC1=O)C2` [Compound 951], 220 nM; with `COc1ccc2c(c1)C(=O)N(C[C@@]1(C#Cc3ccc(C(=NO)N4CCOCC4)s3)NC(=O)NC1=O)C2` [Compound 952], 571 nM. On the same count and under the same terms, with `COc1ccc2c(c1)C(=O)N(C[C@@]1(C#Cc3ccc(C(=NO)N4CCN(C)CC4)nc3)NC(=O)NC1=O)C2` [Compound 953] the figure was 87 nM; with `CCN1CCN(C(=NO)c2ccc(C#C[C@]3(CN4Cc5ccc(OC)cc5C4=O)NC(=O)NC3=O)cn2)CC1` [Compound 954], 87 nM; with `COc1ccc2c(c1)C(=O)N(C[C@@]1(C#Cc3ccc(-c4ccccc4O)cc3)NC(=O)NC1=O)C2` [Compound 955], 652 nM.

The same assay, now with this note: IC50 for inhibition of TNF-α production, LPS-stimulated human whole blood; read-out: hWBA.
`COc1ccc2c(c1F)C(=O)N(C[C@@]1(C#Cc3ccc4c(=O)[nH][nH]c4c3)NC(=O)NC1=O)C2` [Compound 301]: the IC50 was determined as 226 nM. As to `COc1ccc2c(c1)C(=O)N(C[C@@]1(C#Cc3cc(F)c4c(O)n[nH]c4c3)NC(=O)NC1=O)C2` [Compound 302], the IC50 was 723 nM. On the same count and under the same terms, to `COc1ccc2c(c1F)C(=O)N(C[C@@]1(C#Cc3ccc4c(c3)CN(C)C(=O)N4)NC(=O)NC1=O)C2` [Compound 307] belongs 281 nM; to `COc1ccc2c(c1)C(=O)N(C[C@@]1(C#Cc3ccc4c(c3)c(N)nn4CCN(C)C)NC(=O)NC1=O)C2` [Compound 705], 101 nM; to `COc1ccc2c(c1)C(=O)N(C[C@@]1(C#Cc3ccc4c(c3)c(O)nn4C)NC(=O)NC1=O)C2` [Compound 712], 1530 nM. With `COc1ccc2c(c1)C(=O)N(C[C@@]1(C#Cc3ccc4c(O)nn(C)c4c3)NC(=O)NC1=O)C2` [Compound 715], the IC50 turned out to be 456 nM. Still for that read-out and setting: to `COc1ccc2c(c1)C(=O)N(C[C@@]1(C#Cc3ccc4c(CN(C)C)n[nH]c4c3)NC(=O)NC1=O)C2` [Compound 728] belongs 163 nM. Still for that read-out and setting: with `COc1ccc2c(c1)C(=O)N(C[C@@]1(C#Cc3ccc4c(-c5ccncc5)n[nH]c4c3)NC(=O)NC1=O)C2` [Compound 734] the figure was 1010 nM. For `COc1ccc2c(c1)C(=O)N(C[C@@]1(C#Cc3ccc(CC4CCN(C)CC4)nc3)NC(=O)NC1=O)C2` [Compound 739], the IC50 is 195 nM. The same measure, in the same setting: with `COc1ccc2c(c1)C(=O)N(C[C@@]1(C#Cc3ccc(-c4cc(N)[nH]n4)cc3)NC(=O)NC1=O)C2` [Compound 747] the figure was 128 nM; with `COc1ccc2c(c1)C(=O)N(C[C@@]1(C#Cc3ccc4c(O)n[nH]c4c3)NC(=O)NC1=O)C2` [Compound 748], 156 nM; with `COc1ccc2c(c1)C(=O)N(C[C@@]1(C#Cc3ccc(C(=O)N4CCN(C5CC5)CC4)cc3)NC(=O)NC1=O)C2` [Compound 961], 1160 nM. Turning to `COc1ccc2c(c1)C(=O)N(C[C@@]1(C#Cc3ccc(C(=O)N4CCN(C5CCCCC5)CC4)cc3)NC(=O)NC1=O)C2` [Compound 962], the IC50 came to 578 nM. Turning to `CCN1CCN(C(=O)c2ccc(C#C[C@]3(CN4Cc5ccc(OC)c(F)c5C4=O)NC(=O)NC3=O)cc2)CC1` [Compound 964], the IC50 turned out to be 308 nM.

On to `COc1ccc2c(c1F)C(=O)N(C[C@@]1(C#Cc3ccc(CN4CCOCC4)nc3)NC(=O)NC1=O)C2` [Compound 965], for which the IC50 was found to be 698 nM.

With `COc1ccc2c(c1F)C(=O)N(C[C@@]1(C#Cc3ccc(CN4CCSCC4)nc3)NC(=O)NC1=O)C2` [Compound 966], the IC50 was determined as 588 nM. For `COc1ccc2c(c1F)C(=O)N(C[C@@]1(C#Cc3ccc(CN4CCCCC4)nc3)NC(=O)NC1=O)C2` [Compound 967], the IC50 stood at 785 nM. With `COc1ccc2c(c1F)C(=O)N(C[C@@]1(C#Cc3ccc(CN4CCc5ccc(F)cc5C4)nc3)NC(=O)NC1=O)C2` [Compound 968], the IC50 amounted to 4980 nM.

Source of the values: patent publication US8541572B2.
